For test [1], the system named is angiotensin II-induced myometrial cell proliferation. Kind of test: Inhibition of angiotensin II-induced myometrial cell proliferation, Coulter counter. The format is cell-based, human. The note with it: for inhibition of angiotensin II-mediated cell proliferation: FIG. 5, 1.00 μM.
Method: Tissue samples were placed into sterile calcium and magnesium-free HBSS containing penicillin (100 U/ml) and streptomycin (100 μg/ml) for transfer to the laboratory. Myometrial cells were isolated by collagenase digestion. Briefly, myometrium was finely chopped and incubated in HBSS containing 1 mg/ml collagenase IA, 20 mM Hepes, 100 U/L penicillin, 100 μg/ml streptomycin and 5 μg/ml fungizone at 37° C. until the cells were dispersed. Myometrial cells were obtained by centrifugation for 15 minutes at 400 g over 60% Percoll and the cells washed with HBSS. Myometrial cells were characterised by their ability to respond to oxytocin and staining for actin.
Cells were maintained in 175 cm^2 flasks in Dulbecco's modified Eagle's medium (DMEM) containing 10% (v/v) fetal calf serum (FCS), 1% L-glutamine,20 mM Hepes and 1% antibiotic-antimycotic mixture (10,000 U penicillin, 10 μg streptomycin, and 25 μg ml^-1 fungizone) at 37° C. in a humidified atmosphere of air/CO2 (19:1) until 95% confluent. Thereafter, the cells were trypsinised, washed and re-plated at a density of 10×10^3 cells per well in 24-well plates in 1 ml of DMEM with 10% FCS for the proliferation studies. After 24 hrs, the medium was removed and replaced with serum-free DMEM. After a further 24 hrs, the experiments were initiated on quiescent monolayers of myometrial cells. […] The corresponding medium was replaced every 24 hrs with fresh medium.
At defined time-points, the growth media was removed and the cells were washed with 1 ml of isotonic saline (0.9% sodium chloride), followed by the addition of 1 ml of 10 mM HEPES buffer containing 1.5 mM magnesium chloride, and 2 drops of Zap-oglobin (Coulter Electronics Ltd., Luton, Beds., UK) containing 2.5% acetic acid to each well. The 24-well plate was allowed to incubate at 37° C. for 10 min. After which, the suspended cells were pipetted up and down to disperse the cell clusters. The cell suspension was then added to 9 ml of counting solution containing 0.9% sodium chloride and 0.5% formalin in a Coulter counter container. […] The number of cells in each well was counted at the aperture size of 16 on the Coulter counter (Coulter Electronics Ltd., Luton, Beds U.K.). Three readings were taken for each well and a mean value of the three readings obtained. The mean (±SD) value of cell counts from the triplicate wells was calculated.
Myometrium cells were maintained in Dulbecco's modified Eagle's medium (MD) with 10% (v/v) FCS, containing 1% L-glutamine, 20 mM HEPES and 1% antibiotic-antimycotic mixture (10,000 U penicillin, 10 mg streptomycin) at 37° C. in a humidified atmosphere of air/CO2 (19:1) until 95% confluent. […] The cell growth was measured at day 4 and day 6 by counting cell numbers in a Coulter Counter. […]
In test [2] the test system is myometrial cells. Kind of test: Myometrial cell proliferation, cell counts in Coulter counter. Format: cell-based, human. The note with it: for cell count, 0 day (+/-SD) / cell count, 4 days (+/-SD) / cell count, 6 days (+/-SD): Table 1, in 1% FCS. Here is the method: Tissue samples were placed into sterile calcium and magnesium-free HBSS containing penicillin (100 U/ml) and streptomycin (100 μg/ml) for transfer to the laboratory. Myometrial cells were isolated by collagenase digestion. Briefly, myometrium was finely chopped and incubated in HBSS containing 1 mg/ml collagenase IA, 20 mM Hepes, […], 100 μg/ml streptomycin and 5 μg/ml fungizone at 37° C. until the cells were dispersed. Myometrial cells were obtained by centrifugation for 15 minutes at 400 g over 60% Percoll and the cells washed with HBSS. Myometrial cells were characterised by their ability to respond to oxytocin and staining for actin.
Cells were maintained in 175 cm^2 flasks in Dulbecco's modified Eagle's medium (DMEM) containing 10% (v/v) fetal calf serum (FCS), 1% L-glutamine,20 mM Hepes and 1% antibiotic-antimycotic mixture (10,000 U penicillin, […], and 25 μg ml^-1 fungizone) at 37° C. in a humidified atmosphere of air/CO2 (19:1) until 95% confluent. Thereafter, the cells were trypsinised, washed and re-plated at a density of 10×10^3 cells per well in 24-well plates in 1 ml of DMEM with 10% FCS for the proliferation studies. After 24 hrs, the medium was removed and replaced with serum-free DMEM. After a further 24 hrs, the experiments were initiated on quiescent monolayers of myometrial cells. To the serum-starved myometrial cells was added either angiotensin II (0.1 μm or 1.0 μm) in the presence or absence of 1% FCS or bFGF (20 ng/ml) or FCS (1%) alone or DuP753 with or without angiotensin II (0.1 μM) and cell growth measured at day 4 and day 6 by counting cell numbers in a Coulter counter as described below. The corresponding medium was replaced every 24 hrs with fresh medium.
Calibration of the Coulter counter was achieved by counting the myometrium cell suspension at reduced aperture size ranging from 0 to 32. A calibration curve was constructed from the cell counts on the function of the aperture size, and the aperture size corresponding to the middle point of the plateau part of the calibration curve was used for the cell counting. The aperture size used for myometrium cell counting was 16.
At defined time-points, the growth media was removed and the cells were washed with 1 ml of isotonic saline (0.9% sodium chloride), followed by the addition of 1 ml of 10 mM HEPES buffer containing 1.5 mM magnesium chloride, and 2 drops of Zap-oglobin (Coulter Electronics Ltd., Luton, Beds., UK) containing 2.5% acetic acid to each well. The 24-well plate was allowed to incubate at 37° C. for 10 min. After which, the suspended cells were pipetted up and down to disperse the cell clusters. The cell suspension was then added to 9 ml of counting solution containing 0.9% sodium chloride and 0.5% formalin in a Coulter counter container. Each well was washed three times with the counting solution from the same container and effluent collected in the same container. The number of cells in each well was counted at the aperture size of 16 on the Coulter counter (Coulter Electronics Ltd., Luton, Beds U.K.). Three readings were taken for each well and a mean value of the three readings obtained. The mean (±SD) value of cell counts from the triplicate wells was calculated.
As discussed above, FIG. 3(A) illutrates the effect of angiotensin II on myometrial cell proliferation. Myometrium cells were maintained in Dulbecco's modified Eagle's medium (MD) with 10% (v/v) FCS, containing 1% L-glutamine, 20 mM HEPES and 1% antibiotic-antimycotic mixture (10,000 U penicillin, 10 mg streptomycin) at 37° C. in a humidified atmosphere of air/CO2 (19:1) until 95% confluent. For the proliferation studies, the cells were plated at a density of 10×10^3 cells per well in 24 well plates in 1 ml of DMEM with 10% FCS. After 24 hrs the medium was removed and replaced with serum-free DMEM. After a further 24 hrs, the experiment was initiated on quiescent monolayers of myometrial cells. […]

Test [3] concerns myometrial cells. Put plainly: [3H]-thymidine incorporation into DNA (DNA synthesis). Format: cell-based, human. The following applies: FIG. 4; Captopril 0.1 and 1.0 mM; 48 h; serum-free medium. Here is the method:
Myometrial cells prepared as described previously were resuspended in culture medium containing DMEM supplemented with 10% (v/v) FCS, 10 mM L-glutamine, 20 mM hepes, 100 U/mi penicillin and 100/μg/ml streptomycin in 24 well plates at a density of approximately 250×10^3 cells per well and maintained at 37° C. in a humidified atmosphere of air/CO2 (19:1).
DNA synthesis was assayed by measuring [^3 H]-thymidine incorporation into DNA. Subconfluent myometrial cells were made quiescent by incubation with serum-free medium for 48 h, the medium being replaced with serum-free medium containing 0.2% (w/v) bovine serum albumin (BSA) and [^3 H]-thymidine (0.2 μCi/well). The cells were further incubated for 48 h in the presence of angiotensin-converting enzyme (ACE) inhibitor (0.1 and 1.0 mM Captopril, hatched and solid columns respectively) or angiotensin II (100 nM AgII, crossed column). The medium was then removed and the cells incubated with 10% cold trichloroacetic acid TCA) at 4° C. for 15 min. TCA-precipitated material was redissolved in 0.2 M NaOH and the radioactivity determined by liquid scintillation counting in a β-scintillation analyser. Positive and negative controls for proliferation were established by incubating cells with 10% fetal calf serum (square column) and by growth in the absence of the agonist in serum-free medium (open column).
In general terms: Dividing cells build labelled thymidine or BrdU into new DNA.

Test [4] concerns non-AT1/non-AT2 angiotensin II recognition site. Kind of test: [125I]angiotensin II receptor autoradiography on myometrium/fibroid sections. The format is binding, human. The following applies: for displacement of [125I]angiotensin II from non-AT1/non-AT2 angiotensin II recognition site: FIG. 2, unlabeled ligand 0.1 nM, human non-pregnant myometrium and fibroid sections. Here is the method:
Frozen myometrium and fibroid tissues were surrounded in embedding medium (OCT compound, Miles Scientific) before 20 μm sections were cut using a cryostat (-15 to -1 9° C.) and thaw mounted onto gelatin-coated glass slides for receptor autoradiographic studies. Sections were stored (less than 2 week) desiccated at -80° C. until used.
Slide mounted human myometrial/fibroid sections were removed from storage and allowed approximately 30 min to equilibrate to room temperature. To reduce endogenous levels of angiotensin II in the tissue, the sections were preincubated for 60 min in incubation buffer (mM; sodium chloride, 150; sodium dihydrogen phosphate, 50; magnesium chloride, 10; ethyleneglycol-bis-(β-amino-ethyl ether)-N,N'-tetra-acetic acid, 5 and 0.4% w/v bovine serum albumin, pH 7.4) at 25° C. […] Immediately following incubation, the tissue sections were washed in ice-cold incubation buffer for 2 min and dipped (1 s) in ice-cold distilled water to remove buffer salts. The sections were rapidly dried in a stream of cold dry air and exposed to Hyperfilm-[^3 H]
In general terms: Displacement assays read how much labelled ligand stays bound in the presence of the test substance.

The results in this text go back to patent US5981470A, “Uterine fibroid treatment” (The University of Birmingham, priority 1994, dated 1999).

As for `Cc1cc(Cn2cnc3c2CC(C(=O)O)N(C(=O)C(c2ccccc2)c2ccccc2)C3)ccc1N` (stereo not drawn) [PD123177], the “inhibition of angiotensin II-mediated cell proliferation” value in test [1] is “significantly inhibited”. Besides, the “inhibition of angiotensin II-mediated cell growth” value in test [1] (preliminary data) is on record as “inhibits”.
Take “bFGF: Basic fibroblast growth factor, classic growth factor, from RD Systems”: in the test with myometrial cells [2], the “cell count, 0 day (+/-SD)” value is 63.90 +/- 1.88; the “cell count, 4 days (+/-SD)” value is given as 167.33 +/- 25.11; the “cell count, 6 days (+/-SD)” value is 307.33 +/- 49.69.
On to `C[C@H](CS)C(=O)N1CCC[C@H]1C(=O)O` [Captopril], for which the “reduction of DNA synthesis, of control (0% FCS)” value in the test with myometrial cells [3] is on record as approximately 50%.
For the compound Sar-Ala-angiotensin II, the “displacement of [125I]angiotensin II from non-AT1/non-AT2 angiotensin II recognition site” value in test [4] is listed as “can selectively displace”.
For `CCCCc1nc(Cl)c(CO)n1Cc1ccc(-c2ccccc2-c2nn[nH]n2)cc1` [DuP753], the “inhibition of the effects of angiotensin II on cell proliferation” value in test [1] (FIG. 3(B), DuP753 1 μM, angiotensin II 0.1 μM, 1% FCS) is on record as “inhibits”. Besides, the “inhibition of angiotensin II-mediated cell proliferation” value in test [1] is listed as “significantly inhibited”.
Turning to Sar-Thr-angiotensin II, the “displacement of [125I]angiotensin II from non-AT1/non-AT2 angiotensin II recognition site” value in test [4] is given as “can selectively displace”.
Turning to “angiotensin II (DRVYIHPF; Angiotensin-2; UniProt P01019 25-32, looked up)”, the “intensity of non-AT1/non-AT2 angiotensin II recognition site labelling in fibroid tissue” value in test [4] (FIG. 1, cold angiotensin II (1 μM)) is “only disappears”. Also, in the test on myometrial cells [2] (FIG. 3(A), 0.1 μM, after six days in culture), the “increase in myometrial cell proliferation compared to cells in culture medium devoid of angiotensin II” value is reported as approximately 100%. Further, in the test on myometrial cells [2], the “cell count, 0 day (+/-SD)” value is 64.33 +/- 2.73; the “cell count, 4 days (+/-SD)” value is recorded as 167.33 +/- 21.55; the “cell count, 6 days (+/-SD)” value is 333.67 +/- 7.51.
